Reference: paper PMC9578396, “Intrinsic Antibacterial Activity of Xeruborbactam In Vitro: Assessing Spectrum and Mode of Action” (Antimicrobial Agents and Chemotherapy, 2022)
Read-outs that look alike come from different tables or passages of the source.

Key:
Format in all cases: cell-based
Acinetobacter baumannii = assay: Broth microdilution MIC (CLSI), Acinetobacter baumannii; conditions: Acinetobacter baumannii
From the text: (§1) (i) Panels of engineered bacterial strains containing various combinations of porin and efflux mutations were used. The construction of all the strains used in the study is described in detail in references, [44], and [45]. (ii) KPC-producing clinical isolates and their derivatives that lost KPC plasmids were used also. These strains and their origins are described in the Table S2. (iii) Finally, KPC-producing clinical isolates enriched in strains with porin mutations were used. The mutations identified include various deletions, insertions, nonsense mutations, and decreased expression. Most of the isolates were obtained from JMI Laboratories or International Health Management Associates (IHMA); they were collected in the course of global surveillance studies.
(§2) Bacterial isolates were subjected to broth microdilution susceptibility testing, performed according to Clinical and Laboratory Standards Institute (CLSI) methods ([46]), using panels prepared in-house. […] Xeruborbactam was synthesized at Qpex Biopharma, San Diego, CA. Avibactam was purchased from eNovation Chemicals LLC, Bridgewater, NJ, USA; zidebactam was from MedKoo Biosciences, Inc., Morrisville, NC, and nacubactam was from Advanced ChemBlocks, Hayward, CA. Durlobactam was synthesized at Acme Bioscience, Palo Alto, CA, USA.

Escherichia coli = assay: Broth microdilution MIC (CLSI), Escherichia coli
From the text: as §1, §2

Klebsiella pneumoniae = assay: microbe, parasite or virus in culture; conditions: Klebsiella pneumoniae
Outline: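 MICs by CLSI broth microdilution in in-house panels. Strains tested were engineered strains carrying porin and efflux mutation combinations, KPC-producing clinical isolates and derivatives cured of KPC plasmids, and KPC-producing clinical isolates enriched for porin mutations.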

Pseudomonas aeruginosa = assay: Broth microdilution MIC (CLSI), Pseudomonas aeruginosa; conditions: Pseudomonas aeruginosa
From the text: as §1, §2

Enterobacterales = assay: Broth microdilution MIC (CLSI), Enterobacterales; conditions: read-out: antibacterial potency (MIC)
From the text: (§3) Bacterial isolates were subjected to broth microdilution susceptibility testing, performed according to Clinical and Laboratory Standards Institute (CLSI) methods ([46]), using panels prepared in-house. Meropenem was purchased from Sandoz, and all other antibiotics were from Sigma-Aldrich. Xeruborbactam was synthesized at Qpex Biopharma, San Diego, CA. Avibactam was purchased from eNovation Chemicals LLC, Bridgewater, NJ, USA; zidebactam was from MedKoo Biosciences, Inc., Morrisville, NC, and nacubactam was from Advanced ChemBlocks, Hayward, CA. Durlobactam was synthesized at Acme Bioscience, Palo Alto, CA, USA.

[1] = test system: Enterobacter cloacae species complex; assay: Broth microdilution MIC (CLSI), Enterobacter cloacae; conditions: Enterobacter cloacae, read-out: MIC
From the text: as §3

[2] = strain AB1007, wild type, read-out: MIC
[3] = strain ACM1015, ΔadeIJK ΔadeABC
[4] = strain ACM1027, adeN (AdeIJK overexpression)
[5] = strain ACM1030, adeS (AdeABC overexpression)
[6] = EC1078, PBP2 same as MG1655, PBP3 I332V
[7] = EC1081, PBP2 same as MG1655, PBP3 Q227H
[8] = EC1085, PBP2 T331P, PBP3 A233T I332V
[9] = EC1088, PBP2 A308G, PBP3 same as MG1655
[10] = EC1098, PBP2 V217M, PBP3 YRIN ins, I532L
[11] = EC1103, PBP2 same as MG1655, PBP3 YRIN ins, Q227H, E349K, I532L
[12] = EC1105, PBP2 A543T, PBP3 YRIN ins, Q227H, E349K, I532L
[13] = EC1119, PBP2 same as MG1655, PBP3 YRIN ins, Q227H, E349K, I532L
[14] = EC1121, PBP2 V217M, PBP3 YRIN ins, E349K, I532L
[15] = Escherichia coli, strain ECM5497, wild type, read-out: MIC
[16] = Escherichia coli, strain ECM6001, ΔacrB
[17] = Escherichia coli, strain ECM6502, marR (AcrAB overexpression)
[18] = KPM1026a, parent, read-out: MIC
[19] = strain KPM1026a, wild type, read-out: MIC
[20] = strain KPM1027, ramR, read-out: MIC
[21] = strain KPM1171, ramR ompK36_1171, read-out: MIC
[22] = strain KPM2040, ompK36_2040, read-out: MIC
[23] = strain KPM2613, ΔompK35 ompK36_2040
[24] = strain PAM1020, wild type, read-out: MIC
[25] = strain PAM1032, nalB (MexAB-OprM overexpression)
[26] = strain PAM1033, nfxB (MexCD-OprJ overexpression)
[27] = strain PAM1034, nfxC (MexEF-OprN overexpression)

CC1=C[C@@H]2CN(C(=O)N2OS(=O)(=O)O)[C@@H]1C(N)=O [Durlobactam]
8: MIC (Escherichia coli; [6]) | MIC (Escherichia coli; [13])
8 µg/mL: MIC (Klebsiella pneumoniae; KPM3532 (TolQ::M189K), alone) | MIC (Klebsiella pneumoniae; KPM3532, TolQ::M189K) | MIC (Klebsiella pneumoniae; [23]) | MIC (Pseudomonas aeruginosa; after inactivation of MexAB-OprM, read-out: MIC) | MIC (Pseudomonas aeruginosa; strain PAM1106, mexA::Tet) | MIC (Pseudomonas aeruginosa; strain PAM1154, oprM::Hg)
0.25: MIC (Escherichia coli; [7]) | MIC (Escherichia coli; [11])
32 µg/mL: MIC (Acinetobacter baumannii; strain ACM1013, ΔadeIJK) | MIC (Klebsiella pneumoniae; [21])
1: MIC (Escherichia coli; EC1097, PBP2 M574I, PBP3 Q227H) | MIC (Escherichia coli; [12])
0.125 to 0.5 µg/mL: MIC (Enterobacterales)
0.5 µg/mL: MIC (Escherichia coli; [15]) | MIC (Escherichia coli; [16]) | MIC (Klebsiella pneumoniae; [19]) | MIC (Klebsiella pneumoniae; [20]) | MIC (Klebsiella pneumoniae; strain KPM2600, ΔompK35)
128 µg/mL: MIC (Acinetobacter baumannii; [4]) | MIC (Pseudomonas aeruginosa; [27])
16 µg/mL: MIC (Acinetobacter baumannii; [3]) | MIC (Klebsiella pneumoniae; KPM3534 (TolQ::S31F), alone) | MIC (Klebsiella pneumoniae; KPM3534, TolQ::S31F) | MIC (Klebsiella pneumoniae; KPM4235, TolQ::IP(183–1844)PR) | MIC (Klebsiella pneumoniae; KPM4236, TolQ::TAA at aa 103) | MIC (Klebsiella pneumoniae; KPM4238, TolQ::S25F) | MIC (Klebsiella pneumoniae; KPM4239, TolQ::S28F) | MIC (Klebsiella pneumoniae; KPM4240, TolQ::S25Y)
64 µg/mL: MIC (Acinetobacter baumannii; [2]) | MIC (Acinetobacter baumannii; strain ACM1014, ΔadeABC) | MIC (Acinetobacter baumannii; [5]) | MIC (Pseudomonas aeruginosa; before inactivation of MexAB-OprM (wild type), read-out: MIC) | MIC (Pseudomonas aeruginosa; [24])
0.5: MIC (Escherichia coli; [9]) | MIC (Escherichia coli; [10]) | MIC (Escherichia coli; [14])
0.25 µg/mL: MIC (Escherichia coli; [17]) | MIC (Klebsiella pneumoniae; KPM1026a, alone, read-out: MIC) | MIC (Klebsiella pneumoniae; [18]) | MIC (Klebsiella pneumoniae; strain KPM2696, ΔacrB)
> 256 µg/mL: MIC (Pseudomonas aeruginosa; [25])
32: MIC (Escherichia coli; [8])
4 µg/mL: MIC (Klebsiella pneumoniae; [22]) | MIC (Pseudomonas aeruginosa; [26])

CN(C)c1cc(NC(=O)CNC(C)(C)C)c(O)c2c1C[C@H]1C[C@H]3[C@H](N(C)C)C(O)=C(C(N)=O)C(=O)[C@@]3(O)C(O)=C1C2=O [Tigecycline]
0.5 µg/mL: MIC (Escherichia coli; Escherichia coli, clinical isolate EC1078, OmpK35 NF, OmpK36 NF, read-out: MIC) | MIC (Escherichia coli; Escherichia coli, clinical isolate EC1081, OmpK35 FN, OmpK36 FN, read-out: MIC) | MIC (Klebsiella pneumoniae; clinical isolate KP1074, OmpK35 NF, OmpK36 PFN (GD), read-out: MIC)
2 µg/mL: MIC ([1]; clinical isolate ECL1126, OmpK35 FN, OmpK36 FN) | MIC ([1]; clinical isolate ECL1131, OmpK35 NF, OmpK36 FN)
8 µg/mL: MIC ([1]; clinical isolate ECL1057, OmpK35 FN, OmpK36 NF)
4 µg/mL: MIC (Escherichia coli; Escherichia coli, clinical isolate EC1119, OmpK35 NF, OmpK36 NF, read-out: MIC) | MIC ([1]; clinical isolate ECL1079, OmpK35 NF, OmpK36 NF) | MIC (Klebsiella pneumoniae; clinical isolate KP1469, OmpK35 NF, OmpK36 NF, read-out: MIC) | MIC (Klebsiella pneumoniae; clinical isolate KP1598, OmpK35 NF, OmpK36 PFN (GD), read-out: MIC)
0.125 µg/mL: MIC (Escherichia coli; Escherichia coli, clinical isolate EC1088, OmpK35 FN, OmpK36 FN, read-out: MIC)
1 µg/mL: MIC (Escherichia coli; Escherichia coli, clinical isolate EC1097, OmpK35 FN, OmpK36 FN, read-out: MIC) | MIC (Escherichia coli; Escherichia coli, clinical isolate EC1098, OmpK35 NF, OmpK36 FN, read-out: MIC) | MIC (Klebsiella pneumoniae; clinical isolate KP1004, OmpK35 NF, OmpK36 FN, read-out: MIC) | MIC (Klebsiella pneumoniae; clinical isolate KP1070, OmpK35 NF, OmpK36 FN, read-out: MIC) | MIC (Klebsiella pneumoniae; clinical isolate KP1093, OmpK35 NF, OmpK36 PFN (GD), read-out: MIC) | MIC (Klebsiella pneumoniae; clinical isolate KP1251, OmpK35 NF, OmpK36 FN, read-out: MIC) | MIC (Klebsiella pneumoniae; clinical isolate KP1274, OmpK35 FN, OmpK36 FN, read-out: MIC) | MIC (Klebsiella pneumoniae; clinical isolate KP1463, OmpK35 NF, OmpK36 NF, read-out: MIC)
0.25 µg/mL: MIC (Escherichia coli; Escherichia coli, clinical isolate EC1085, OmpK35 FN, OmpK36 FN, read-out: MIC) | MIC (Escherichia coli; Escherichia coli, clinical isolate EC1121, OmpK35 NF, OmpK36 FN, read-out: MIC)

O=C(NNC(=O)[C@@H]1CC[C@@H]2CN1C(=O)N2OS(=O)(=O)O)[C@@H]1CCCNC1 [Zidebactam]
> 64 µg/mL: MIC (Klebsiella pneumoniae; KPM3532 (TolQ::M189K), alone) | MIC (Klebsiella pneumoniae; KPM3532, TolQ::M189K) | MIC (Klebsiella pneumoniae; KPM3534 (TolQ::S31F), alone) | MIC (Klebsiella pneumoniae; KPM3534, TolQ::S31F) | MIC (Klebsiella pneumoniae; KPM4235, TolQ::IP(183–1844)PR) | MIC (Klebsiella pneumoniae; KPM4236, TolQ::TAA at aa 103) | MIC (Klebsiella pneumoniae; KPM4238, TolQ::S25F) | MIC (Klebsiella pneumoniae; KPM4239, TolQ::S28F) | MIC (Klebsiella pneumoniae; KPM4240, TolQ::S25Y) | MIC (Klebsiella pneumoniae; [21]) | MIC (Klebsiella pneumoniae; [22]) | MIC (Klebsiella pneumoniae; [23])
0.5: MIC (Escherichia coli; [12]) | MIC (Escherichia coli; [14])
0.125: MIC (Escherichia coli; [7])
4 µg/mL: MIC (Pseudomonas aeruginosa; [25])
0.25 µg/mL: MIC (Klebsiella pneumoniae; KPM1026a, alone, read-out: MIC) | MIC (Klebsiella pneumoniae; [18]) | MIC (Klebsiella pneumoniae; [19]) | MIC (Klebsiella pneumoniae; [20]) | MIC (Klebsiella pneumoniae; strain KPM2600, ΔompK35) | MIC (Klebsiella pneumoniae; strain KPM2696, ΔacrB)
0.5 µg/mL: MIC (Escherichia coli; [17])
> 256 µg/mL: MIC (Acinetobacter baumannii; [2]) | MIC (Acinetobacter baumannii; strain ACM1013, ΔadeIJK) | MIC (Acinetobacter baumannii; strain ACM1014, ΔadeABC) | MIC (Acinetobacter baumannii; [3]) | MIC (Acinetobacter baumannii; [4]) | MIC (Acinetobacter baumannii; [5])
0.125 µg/mL: MIC (Escherichia coli; [15]) | MIC (Escherichia coli; [16]) | MIC (Pseudomonas aeruginosa; [26])
8: MIC (Escherichia coli; [6]) | MIC (Escherichia coli; [13])
2 µg/mL: MIC (Pseudomonas aeruginosa; [24]) | MIC (Pseudomonas aeruginosa; [27]) | MIC (Pseudomonas aeruginosa; strain PAM1106, mexA::Tet) | MIC (Pseudomonas aeruginosa; strain PAM1154, oprM::Hg)
0.25: MIC (Escherichia coli; [9]) | MIC (Escherichia coli; EC1097, PBP2 M574I, PBP3 Q227H) | MIC (Escherichia coli; [10]) | MIC (Escherichia coli; [11])
0.125 to 0.5 µg/mL: MIC (Enterobacterales)
16: MIC (Escherichia coli; [8])
4 fold: fold effect on MIC (Escherichia coli; overexpression of AcrAB in E. coli)
